Data published in patent US20240285594A1, “COMPOSITIONS AND METHODS FOR TREATING PAIN IN ANIMALS” (North Carolina State University, priority 2023, published 2024).
Entries after “also recorded” stand apart in the source; their conditions may differ. Read-outs that look alike come from different tables or passages of the source.

Assays:
[1] = Pilot pharmacokinetic study of intranasal flunixin, three catheter sites; type: in vivo; settings: female, Yorkshire cross, plasma, inhaled or intranasal, 3.0 mg/kg IN, one grower pig; for AUC / Cmax: pig, 3 mg/kg; for AUC: read-out: area under the curve (AUC) (converted); for Cmax: read-out: peak concentration (Cmax)
From the text: A pilot study in one animal was initially performed to compare jugular venous drug concentrations to those of other sites (femoral artery and auricular artery), as there was concern that drainage of the nasal sinus would produce higher concentrations of flunixin in the blood collected from the jugular vein.
The pilot study involved one female Yorkshire cross grower pig sourced from a production farm weighing 25.3 kg. The pig was sedated with IM Telazol®, ketamine, and xylazine (TKX). The Telazol® was reconstituted with ketamine (250 mg; 2.5 mL) and xylazine (250 mg; 2.5 mL; Dechra Veterinary Products, Overland Park, KS, USA) and administered IM at a dose of 0.03 mL/kg (1.5 mg/kg) for each medication before being intubated and maintained on isoflurane anesthesia. A femoral arterial catheter, jugular venous catheter, and auricular arterial catheter were placed using sterile technique. […] A higher dose than the label dose was chosen to ensure that the drug would be detectable since this study's purpose was to determine an appropriate catheter site. Using an intranasal mucosal atomization device (MAD) (Teleflex, Morrisville, NC, USA) with 1 mL luer lock syringe, each nostril was infused with 0.75 mL (37.5 mg) of flunixin to administer a total of 1.5 mL (75 mg). Plasma samples were collected from each catheter site at pre-treatment (blank), 0.08, 0.25, 0.5, 0.85, 1, 1.5, 2, 2.5, and 3 hours post-treatment and analyzed using ultra performance liquid chromatography and tandem mass spectrometry (UPLC-MS/MS) to determine flunixin concentrations. A non-compartmental pharmacokinetic analysis was then performed.

[2] = cited from earlier work; for mitigation of pain associated with castration (and tail docking): earlier published studies in pigs, route as in the sentence
[3] = Plasma and interstitial fluid concentrations after intravenous or intranasal flunixin meglumine in cattle; type: in vivo
Procedure: FIG. 10: Plasma concentration versus time curve for individual cattle (n=4) following a single intravenous dose of flunixin meglumine at 2.2 mg/kg. Samples were simultaneously collected from the opposite jugular vein (via pre-placed catheter) and a pre-placed portal vein catheter. Some variability is observed between sampling sites (jugular vs. portal vein) but overall concentrations and trend are similar over time.
FIG. 11: Plasma concentration versus time curve for individual cattle (n=4) following a single intranasal dose of flunixin meglumine at 2.2 mg/kg. Samples were simultaneously collected from a jugular vein catheter and a pre-placed portal vein catheter. Overall, plasma concentrations are lower following intranasal administration, and the jugular sampling site overestimates systemic concentrations especially following the first 1 hour after administration.
FIG. 12: Interstitial fluid concentration versus time curve for individual cattle (n=4) following a single intranasal (n=2) or intravenous (n=2) dose of flunixin meglumine at 2.2 mg/kg. Samples were collected using an in vivo ultrafiltration collection device and represent tissue unbound concentrations of flunixin. There is systemic absorption following both intravenous and intranasal routes of administration, with tissue concentrations of flunixin detected for at least 24 hours following a single dose.

[4] = IM flunixin 2.2 mg/kg compared to ketoprofen 3 mg/kg and meloxicam 0.4 mg/kg; swine; cited from earlier work
prostaglandin E2 (PGE2) = experiment: Serum PGE2 after castration of piglets (Example 3); type: in vivo
Procedure: Pairwise comparisons of treatments at −24 h: P≥0.77. […] Pairwise comparisons of treatments at 24 h post-castration: P≥0.11.
The objective of this study was to evaluate the effects of intranasal flunixin and intra-inguinal lidocaine application on the castration associated inflammatory response in piglets, as described in Example 1.

Structure (SMILES): Cc1c(Nc2ncccc2C(=O)O)cccc1C(F)(F)F [flunixin meglumine]
- AUC ([1]; auricular artery): 12800 ng·h/mL
- Cmax ([1]; auricular artery): 6000 ng/mL
- AUC ([1]; femoral artery): 12300 ng·h/mL
- Cmax ([1]; femoral artery): 5170 ng/mL
- AUC ([1]; jugular vein): 12800 ng·h/mL
- Cmax ([1]; jugular vein): 6820 ng/mL
- Tmax ([1]; all catheter sites, read-out: time to peak concentration (Tmax)): 15 min
- numerical decrease of cortisol concentrations ([2]; FM topically 24 h prior to castration vs saline-treated piglets, not significant): more than 30%
- mitigation of pain associated with castration (and tail docking) [2]: effective
- mitigation of pain associated with castration (and tail docking) ([2]; listed as flunixin): more effective; also recorded: superior
- total pain scores ([2]; immediately post castration, transdermal flunixin treated piglets, castrated piglets 4.9, video observation): 3.1
- cortisol concentrations ([2]; intramuscular FM, 2 h post-castration, vs castrated non-treated control, Nixon 2021): decreased cortisol concentrations
- rescue analgesia intervention ([2]; transdermal FM 24 h before castration, control pigs 54%): 29%
- plasma concentrations ([3]; cattle (n=4), single intranasal dose 2.2 mg/kg, compared with intravenous): lower
- time tissue (interstitial fluid, unbound) concentrations were detected ([3]; cattle, single intranasal or intravenous dose 2.2 mg/kg): at least 24 hours
- bioavailability [4]: higher bioavailability
- terminal half-life [4]: longer terminal half-life
- serum PGE2 concentrations (prostaglandin E2 (PGE2); 1 h post-castration, castrated and non-castrated piglets, flunixin 2.2 mg/kg IN vs piglets without the drug): lower serum PGE2 concentrations; also recorded: effective
- serum PGE2 concentrations (prostaglandin E2 (PGE2); 24 h post castration, vs other treatments): no observed differences; also recorded: not effective
